Measured values published in patent US20230187019A1, “METHOD FOR DETERMINING A DRUG COMBINATION VIA A BLOCKING MODEL OF A MULTI-SITE-TARGETED PROTEIN AND APPLICATIONS THEREOF” (National Tsing Hua University, priority 2021, published 2023).
“Also recorded” adds a separate entry of the source. Where two headings read alike, the source gives them in different places.

How the values were obtained:
[1] = tested on: HCT116; test: Cell viability assay on HCT116; type: cell-based, human; conditions: for viability at 20 µM: Homo sapiens; for HCT116 Cell Viability: remaining viability
[2] = tested on: AsPC-1; test: Cell viability assay (MTT) on AsPC-1; conditions: for viability at 20 µM: Homo sapiens, ASPC1, read-out: AsPC-1 Cell Viability, remaining viability, 20 μM drug, normalized by blank control, three repeats; for inhibition of cell viability, significance: 20 μM, AsPC-1, p-value <0.05; for AsPC-1 Cell Viability: remaining viability, 20 μM drug, normalized by blank control, three repeats
Method: The cell viability was measured using the MTT assay or CellTiter-Glo Luminescent Cell Viability Assay. For MTT assay, mouse AK4.4 (1,000 cells/well) and human AsPC-1 (1,500 cells/well) cells were seeded in 96-well plates and cultured in serum-free medium (SFM) containing indicated concentrations of drugs for 48 hours. To measure the cell viability, 15 μL MTT (3-(4,5-dimethylthiazol-2-yl)-2,5-diphenyltetrazolium bromide, 5 mg/mL in PBS) was added in each well and kept at 37° C. for three hours. The precipitated crystals were then dissolved in 50 μL DMSO, and the absorbance at 570 nm was measured by Multiskan GO Microplate Spectrophotometer (Thermo Scientific, USA) to estimate the cell survival rate. To quantify the drug combination effect, the combination index was calculated when the cell viability was reduced by 50% using the following Equation (1):

[3] = tested on: shATG4B/HCT116; test: Cell viability assay on shATG4B/HCT116 (ATG4B silencing strain); type: cell-based, human; conditions: for viability at 20 µM: Homo sapiens; for shATG4B/HCT116 Cell Viability: remaining viability; for difference of cell viability inhibition between shATG4B/HCT116 (S strain) and shCtrl/HCT116 (C strain): Student's t-test, p-value <0.05
[4] = tested on: shCtrl/HCT116; test: Cell viability assay on shCtrl/HCT116 (control strain); type: cell-based, human; conditions: for viability at 20 µM: Homo sapiens; for shCtrl/HCT116 Cell Viability: remaining viability
[5] = HCT-116, remaining viability, 20 μM drug, normalized by blank control, three repeats, read-out: HCT116 Cell Viability
[6] = HCT-116, remaining viability, 20 μM drug, S strain, read-out: shATG4B/HCT116 Cell Viability
[7] = HCT-116, remaining viability, 20 μM drug, C strain, read-out: shCtrl/HCT116 Cell Viability
[8] = 20 μM drug, normalized by blank control, three repeats

| Structure (SMILES) | viability at 20 µM [1, 5] [%] | viability at 20 µM [2] [%] | viability at 20 µM [3, 6] [%] | viability at 20 µM [4, 7] [%] | HCT116 Cell Viability [1, 8] [%] | inhibition of cell viability, significance [2] | AsPC-1 Cell Viability [2] [%] | difference of cell viability inhibition between shATG4B/HCT116 (S strain) and shCtrl/HCT116 (C strain) [3] | also measured |
| --- | --- | --- | --- | --- | --- | --- | --- | --- | --- |
| COC(=O)N[C@H](C(=O)N1CCC[C@H]1c1nc(-c2ccc(-c3ccc(-c4c[nH]c([C@@H]5CCCN5C(=O)[C@@H](NC(=O)OC)C(C)C)n4)cc3)cc2)c[nH]1)C(C)C [Daclatasvir] | 62.7 ± 0.3 | 71.1 ± 4.2 | 69.4 ± 3.7 | 58.8 ± 2.6 |  |  |  |  |  |
| Cc1cc(-c2ccc(/N=N/c3ccc4c(S(=O)(=O)O)cc(S(=O)(=O)O)c(N)c4c3O)c(C)c2)ccc1/N=N/c1ccc2c(S(=O)(=O)O)cc(S(=O)(=O)O)c(N)c2c1O [Evans Blue] | 35 | 34 | 34 | 35 | 34.8 ± 1.3 | statistically significant | 33.6 ± 1.2 |  | shATG4B/HCT116 Cell Viability ([3]; 20 μM drug, S strain): 34.5 ± 1.7%; shCtrl/HCT116 Cell Viability ([4]; 20 μM drug, C strain): 34.9 ± 0.3% |
| CC[C@@]1(O)C[C@H](O[C@H]2C[C@H](N(C)C)[C@H](O[C@H]3C[C@H](O)[C@H](O[C@H]4CCC(=O)[C@H](C)O4)[C@H](C)O3)[C@H](C)O2)c2c(cc3c(c2O)C(=O)c2c(O)cccc2C3=O)[C@H]1C(=O)OC [Aclacinomycin A] |  |  |  |  | 27.9 ± 1.3 | statistically significant | 48.3 ± 4.6 | statistically significant; also recorded: significant differences | HCT116 Cell Viability ([1]; 20 μM drug, normalized by blank control, three repeats, listed as aclacinomycin A): 28%; AsPC-1 Cell Viability ([2]; listed as aclacinomycin A): 48%; shATG4B/HCT116 Cell Viability ([3]; 20 μM drug, S strain): 38.4 ± 1.3%; shATG4B/HCT116 Cell Viability ([3]; 20 μM drug, S strain, listed as aclacinomycin A): 38%; shCtrl/HCT116 Cell Viability ([4]; 20 μM drug, C strain): 27.7 ± 1.2%; shCtrl/HCT116 Cell Viability ([4]; 20 μM drug, C strain, listed as aclacinomycin A): 28% |
| Cc1cnc(C(=O)N[C@H]2CCCCC/C=C\[C@@H]3C[C@@]3(C(=O)NS(=O)(=O)C3CC3)NC(=O)[C@@H]3C[C@@H](Oc4nc5ccccc5c5ccccc45)CN3C2=O)cn1 [Paritaprevir] | 85.8 ± 3.3 | 98.7 ± 3 | 88 ± 1.4 | 75.4 ± 1.3 |  |  |  | statistically significant; also recorded: significant differences |  |
| COC(=O)N[C@H](C(=O)N1CC2(CC2)C[C@H]1c1nc(-c2ccc3c(c2)C(F)(F)c2cc(-c4ccc5[nH]c([C@@H]6[C@H]7CC[C@H](C7)N6C(=O)[C@@H](NC(=O)OC)C(C)C)nc5c4)ccc2-3)c[nH]1)C(C)C [Ledipasvir] |  | 95.2 ± 2.9 |  |  |  |  |  | statistically significant; also recorded: significant differences | viability at 20 µM ([1]; HCT-116, read-out: HCT116 Cell Viability, remaining viability, 20 μM drug, normalized by blank control, three repeats): 82.9 ± 2.7%; viability at 20 µM ([3]; HCT-116, read-out: shATG4B/HCT116 Cell Viability): 90.2 ± 1.8%; viability at 20 µM ([4]; HCT-116, read-out: shCtrl/HCT116 Cell Viability, remaining viability, 20 μM drug, C strain): 72.5 ± 0.8% |
| Cc1ccccc1-c1cc(N2CCN(C)CC2)ncc1N(C)C(=O)C(C)(C)c1cc(C(F)(F)F)cc(C(F)(F)F)c1 [Netupitant] | 3 | 43 |  |  | 2.8 ± 0.4 | statistically significant | 42.9 ± 5.1 |  |  |
| O=C(c1c2ccccc2cc2ccccc12)N1CCC(N2CCC[C@@H](C(=O)N3CCOCC3)C2)CC1 [CP-640186] |  |  |  |  | 84.3 ± 2.0 |  | 87.4 ± 4.7 |  |  |
| C[C@@H]1CCO[C@H]2Cn3cc(C(=O)NCc4ccc(F)cc4F)c(=O)c(O)c3C(=O)N12 [Dolutegravir] | 88 ± 4 | 106 ± 5.3 | 89.4 ± 2.5 | 85.5 ± 2.9 |  |  |  | statistically significant; also recorded: significant differences |  |
| CCC(C)n1ncn(-c2ccc(N3CCN(c4ccc(OCC5COC(Cn6cncn6)(c6ccc(Cl)cc6Cl)O5)cc4)CC3)cc2)c1=O (stereo not shown) [Itraconazole] | 82.6 ± 2.1 | 93.6 ± 6.3 | 91.3 ± 2.3 | 84.1 ± 1.9 |  |  |  |  |  |
| CC(C)[C@@]1(NC(=O)[C@@H]2C[C@@H]3c4cccc5[nH]cc(c45)C[C@H]3N(C)C2)O[C@@]2(O)[C@@H]3CCCN3C(=O)[C@H](Cc3ccccc3)N2C1=O [Dihydroergocristine] | 64 ± 3.7 | 77.1 ± 1.6 |  |  |  | statistically significant |  |  |  |
